In patent US9409901B2, “Compositions and methods for treating or preventing diseases or disorders associated with misregulated EIF4E” (Bantam Pharmaceutical, LLC, priority 2012, dated 2016):
pEC50, pIC50: −log10 of the molar value. Where two headings read alike, the source gives them in different places. One block for each compound: values may come before it.

Columns and labels:
[1] = Compound solubility in DMSO; type: physicochemical
AU565 = assay: SBH cell AU565; type: cell-based; details: AU565 cells
[2] = test system: AU565 (breast cancer ER−/PR−, her2−nue+); assay: Cell proliferation assay, AU565; type: cell-based; details: for EC50: AU-565, 91 hours, read-out: ED50 (μM), anti-proliferative activity against AU-565; for pEC50: AU-565 cells, read-out: AU-565 EC50
Procedure: Cells: AU565 (breast cancer ER^−/PR^−, her2^−nue^+) • 1. Cells were resuspended in media containing 10% FBS and 2× gentamicin. Resuspended cells were transferred to an assay plate (100 μL aliquots; 5,200 cells/well). • 2. test compound(s) were serially diluted in assay media. Aliquots of 100 μLof the test compound solution was added to the resuspended cells, creating a total volume of 200 μL. • 3. Plates were incubated at 37 C for 91 hours. • 4. 20 μL of Promega Substrate CellTiter 96 Aqueous One Solution Reagent was added to each well. • 5. Plates were incubated at 37 C and read at 490 nm.

eIF4E = eIF4E (Homo sapiens, UniProt P06730); assay: Binding to eIF4E demonstrated by NMR; details: FIG. 7
Chain of eIF4E (P06730 whole entry, species assumed): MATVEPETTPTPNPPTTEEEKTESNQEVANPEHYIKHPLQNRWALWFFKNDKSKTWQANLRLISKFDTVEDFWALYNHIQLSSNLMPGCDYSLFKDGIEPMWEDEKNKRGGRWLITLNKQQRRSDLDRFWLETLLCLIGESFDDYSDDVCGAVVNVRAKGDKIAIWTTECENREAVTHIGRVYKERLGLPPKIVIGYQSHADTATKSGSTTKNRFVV

eIF4E/eIF4G interaction = eIF4E/eIF4G interaction (Homo sapiens, UniProt P06730); assay: Fluorescence polarization (FP) assay of eIF4E/eIF4G interaction; type: binding
Chain of eIF4E/eIF4G interaction (P06730 whole entry, species assumed): as above
Procedure: The effect of the bound compound on the activity of eIF4e was further addressed using a Fluorescence Polarization (FP) assay. The FP assay was used to monitor the eIF4E/eIF4G interaction. The eIF4E/eIF4G complex was exposed to Structure 10, and the dissociation of eIF4G from eIF4E was measured using the FP assay.
18 amino acid FITC-labeled 4G peptide (Moerke, N. et al., Cell, 128:257-67, 2007).
Compounds as 12.5 mM solutions in DMSO
A master mixture of 20 nM peptide, 400 μM recombinant […] in NMR buffer was made. 240 μL of this master mix was transferred to a separate tube and 3.2 μL of DMSO was added. 30 μL aliquots of this mixture was then added to each of six wells of 384-well black plate. These are the maximum polarization wells. The minimum polarization wells were determined using peptide only at a concentration of 20 nM. The experimental wells were created by adding 3.2 μL of each 12.5 mM solution of a test compound to the master mixture. The compound mixtures were serially diluted to create a six point dose response curve (with six different concentrations of each test compound).
The triplicate averages of the readings were determined. […] The activity of compound at each concentration was determined by comparing the FP signal in the presence of compound to the control (no compound) value. The percent inhibition is =100−((FP compound/FP control)×100).

HeLa Cells = HeLa Cells FQ IC50; type: cell-based
Procedure: Exposed tryptophan side chains are measured in a spectrometer. Tryptophan, when excited at 280 nm, emits light at 350 nm. The degree to which tryptophan emissions are quenched is a measure of binding of a test compound to eIF4E, as tryptophan side chains become “buried” upon compound binding.
HeLa cells were transfected with a bicistronic dual luciferase construct (2×EMCV Luc Plasmid-firefly and EMCV IRES dependent Renilla luciferase). One reporter construct was CAP-dependent, and the other was not. The cells were treated with DMSO in the presence or absence of various compounds described herein for 10 hours (compounds shown are in 50 μM serial dilutions). Cells were evaluated for Luc activity according to the Promega Dual Glo manufacturer instructions.

polysomes = assay: Polysome profile; type: cell-based; details: sucrose gradient, FIG. 11
Procedure: Cells, plated in 140 mm culture dishes; in mid log phase of growth (4-5 plates per treatment. Test compounds as 40 mM master solutions in DMSO Lysis buffer: 15 mM Tris pH 7.4, 15 mM MgCl2, 150 mM NaCl, 1% TritonX-100, 100 μg/mL cycloheximide, 1 mg/mL Heparin. Polysome buffer: 15 mM Tris pH7.4, 15 mM MgCl2, 150 mM NaCl, 100 μg/mL cycloheximide. • 1. Cells were incubated with the desired concentrations of each compound for 2 hours. • 2. Cells were incubated with 100 μg/mL cycloheximide in media for 5 min at 37 C, after which the media was removed from the late, and the plate was put on ice. • 3. Cells were washed twice with 5 mL PBS+100 μg/mL CHX. • 4. Cells were harvested, resuspended in 375 μl of LSB with 1 mM DTT and 100 U/mL RNAsin. • 5. 125 μL of lysis buffer was added, and the cells were subjected to 10 strokes in a homgenizer. • 6. The lysed cells were spun to remove cellular debris, and the supernatant was transferred to fresh tubes. • 7. 15 μL of 5M NaCl and 50 μL of 10 mg/mL Heparin was added. A 20 μL aliquot was taken and stored. The remainder of the supernatant mixture was taken to a volume of 1 mL and the OD260/280 was read. • 8. Aliquots of the supernatant mixture were then applied to a 15-50% sucrose gradient and spun for 105 minutes. The sucrose gradient was then fractionated and the OD254 was measured. […]

[3] = test system: CRL-2813 human melanoma xenografts; assay: CRL-2813 human melanoma xenografts, protein expression (immunostaining); type: in vivo, mice
Procedure: • 1. CRL-2813 cancer cells were grown to obtain ≈5×10^6 cells for each tumor. • 2. Cells were harvested and washed in PBS. • 3. Harvested and washed cells were resuspended in 50% Matrigel™/medium at a density of ≈5×10^6 cells in 100 μL. • 4. 100 μL of the cell suspension was injected subcutaneously • 5. Tumors were grown to ≈150 mm^3 (approx. 2 weeks). • 1. Mice were randomly distributed to treatment and control groups and observed daily. • 2. A test compound or vehicle alone was injected twice daily with at least 10 hrs time interval between doses • Note: Vehicle: corn oil. Drug solution: 35 mg/mL of compound first dissolved in ethanol, mixed with corn oil followed by ethanol evaporation. Dosage: each dose=125 μL vehicle or drug suspension i.p. • 3. Tumor volume was measured weekly. • 4. At the conclusion of experiment, mice were sacrificed, and tumors were removed and weighed. • 5. Remove tumor and weigh • 6. The removed tumors were fixed in formalin solution or flash frozen and processed for histology/immunocytochemistry, or pull-down.
4EGI-1 inhibits expression of oncogenic proteins in melanoma tumors. CRL-2813 human melanoma xenografts were immunostained with antibodies specific for cyclin D1, cyclin E, c-myc, Bcl-2, VEGF or PCNA (FIG. 13). The bar graph is the quantification of immunostaining data (FIG. 14).

[4] = fluorescence polarization, some cells give words

Compound: CCc1sc(-n2nc(C(=O)O)c3cc(C(F)(F)F)ccc32)nc1-c1cccc(OC)c1 [Structure 17]
pEC50 [2]: 4.89 to 5.07

Compound: COC(=O)CN(C)C(=O)c1nn(-c2nc(-c3cccc(OC)c3)c(C(C)C)s2)c2ccc(C(F)(F)F)cc12 [Structure 46]
Compound Solubility DMSO [1]: little/no
pEC50 (AU565): 4.55 to 4.74

Compound: CCOC(=O)CNC(=O)c1nn(-c2nc(-c3cccc(OC)c3)c(C(C)C)s2)c2ccc(C(F)(F)F)cc12 [Structure 47]
Compound Solubility DMSO [1]: complete
SBH cell AU565 (μM) (AU565): none

Compound: COc1cccc(-c2nc(-n3nc(CC(=O)NCC(=O)O)c4cc(Cl)ccc43)sc2C(C)C)c1 [Structure 15]
FP EC50 (μM) (eIF4E/eIF4G interaction; [4]): some
Compound Solubility DMSO [1]: complete
pEC50 (AU565): 4.39 to 4.55

Compound: COc1cccc(-c2nc(-n3nc(C(=O)O)c4cc(C#N)ccc43)sc2C(C)C)c1 [Structure 3]
pEC50 [2]: 4.60 to 4.80
activity in fluorescence polarization assays (eIF4E/eIF4G interaction): showed activity

Compound: CCc1sc(-n2nc(C(=O)O)c3cc(C(F)(F)F)ccc32)nc1-c1cccc(OC)c1 [Structure 1]
EC50 [2]: 8.5 to 12.8 µM
% Growth Inhibition/μM ([2]; AU-565, at 40 μM): 70/40%

Compound: O=C(O)/C(Cc1ccccc1[N+](=O)[O-])=N\Nc1nc(-c2ccc(Cl)c(Cl)c2)cs1 [Structure 4EGI-1Z, reference compound]
EC50 [2]: 4.8 to 7.1 µM
% Growth Inhibition/μM ([2]; AU-565, at 10 μM): 30/10%
pIC50 (HeLa Cells): 4.58

Compound: COc1cccc(-c2nc(Cn3nc(C(=O)O)c4cc(C(F)(F)F)ccc43)sc2C(C)C)c1 [Structure 9]
pEC50 (eIF4E/eIF4G interaction; [4]): 4.44 to 4.62

Compound: COc1cccc(-c2nc(-n3nc(C(=O)O)c4cc(C(F)(F)F)ccc43)sc2C(C)C)c1 [Structure 2]
EC50 [2]: 5.6 to 8.4 µM
% Growth Inhibition/μM ([2]; AU-565, at 40 μM): 79/40%
pEC50 [2]: 5.04

Compound: COc1ccc(C[C@H](N)C(=O)N[C@H]2[C@@H](O)[C@H](n3cnc4c(N(C)C)ncnc43)O[C@@H]2CO)cc1 [puromycin]
polysome density (polysomes): noticeable difference

Compound: O=C(O)/C(Cc1ccccc1[N+](=O)[O-])=N/Nc1nc(-c2ccc(Cl)c(Cl)c2)cs1 [Structure 4EGI-1, 4EGI-1]
expression of oncogenic proteins in melanoma tumors ([3]; cyclin D1, cyclin E, c-myc, Bcl-2, VEGF or PCNA immunostaining): inhibits
housekeeping proteins (e.g., actin and tubulin) ([3]; xenograft model, FIG. 14): unaffected
translation of mRNA for growth-promoting and oncogenic proteins ([3]; xenograft model, FIG. 14): down-regulates
polysome density (polysomes): noticeable difference

Compound: O=C(O)/C(Cc1ccccc1[N+](=O)[O-])=N/Nc1nc(-c2ccc(Cl)c(Cl)c2)cs1 [Structure 4EGI-1E, reference compound]
EC50 [2]: 21 to 32 µM
% Growth Inhibition/μM ([2]; AU-565, at 40 μM): 60/40%
pIC50 (HeLa Cells): 4.32

Further lines, with some results ahead:

Compound Solubility DMSO [1]: complete
pEC50 (AU565): 4.51 to 4.68
Compound: COc1cccc(-c2nc(-n3nc(CC(=O)O)c4cc(Cl)ccc43)sc2C(C)C)c1 [Structure 14]

EC50 ([2]; Homo sapiens, AU565): 1.2 to 1.8 µM
Binding to eIF4E by NMR (eIF4E): demonstrated
Compound: COc1cccc(-c2nc(-n3cc(C(=O)N4CCNCC4)c4cc(C(F)(F)F)ccc43)sc2C(C)C)c1 [Structure 10]
inhibition at 3.1 µM ([2]; Homo sapiens, AU565, AU-565, at 3.1 μM, read-out: % Growth Inhibition/μM): 85%

FP EC50 (μM) (eIF4E/eIF4G interaction; [4]): good
Compound Solubility DMSO [1]: complete
pEC50 (AU565): 5.10 to 5.28
Compound: COc1cccc(-c2nc(-n3nc(CC(=O)N(C)CC(=O)O)c4cc(Cl)ccc43)sc2C(C)C)c1 [Structure 16]

Compound Solubility DMSO [1]: complete
pEC50 (AU565): 4.85 to 5.05
Compound: COc1cccc(-c2nc(-n3nc(C(=O)c4nn[nH]n4)c4cc(C(F)(F)F)ccc43)sc2C(C)C)c1 [Structure 13]

Compound Solubility DMSO [1]: half/less
Compound: COC(=O)CNC(=O)c1nn(-c2nc(-c3cccc(OC)c3)c(C(C)C)s2)c2ccc(C(F)(F)F)cc12 [Structure 45]
SBH cell AU565 (μM) (AU565): low

Compound Solubility DMSO [1]: half/less
pEC50 (AU565): 4.74 to 4.92
Compound: CCOC(=O)CN(C)C(=O)c1nn(-c2nc(-c3cccc(OC)c3)c(C(C)C)s2)c2ccc(C(F)(F)F)cc12 [Structure 48]
